In general, GI50 refers to the concentration that inhibits growth by half. Read a high GI50 as lower sensitivity of the cells.

In one assay the test system is DU-145. In words: In vitro anticancer activity against DU-145 prostate cancer cell line. It counts as functional. The conditions noted are these: Homo sapiens.
In assay [1] the test system is NCI-H322M. In words: In vitro anticancer activity against NCI-H322M non-small cell lung cancer cell line. It counts as functional. The conditions noted are these: Homo sapiens.
The next assay concerns SW-620. As to the kind of experiment: In vitro anticancer activity against SW-620 colon cancer cell line. The assay is classed as functional. The conditions noted are these: Homo sapiens.
The nature of assay [2]: Ratio of the least sensitive cell to the most sensitive cell. The assay is classed as functional.
The test system of assay [3] is U-251. In words: In vitro anticancer activity against U-251 CNS cancer cell line. It counts as functional. The conditions noted are these: Homo sapiens.
For another assay, the system named is Hs-578T. As to the kind of experiment: In vitro anticancer activity against Hs 578.T breast cancer cell line. The assay is classed as functional. The conditions noted are these: Homo sapiens.
Another assay deals with MDA-MB-435. In words: In vitro anticancer activity against MDA-MB-435 breast cancer cell line. It counts as functional. Conditions: Homo sapiens.
Another assay relates to Malme-3M. As to the kind of experiment: In vitro anticancer activity against MALME-3M melanoma cancer cell line. The assay is classed as functional. Conditions: Homo sapiens.
The subject of the next assay is ACHN. As to the kind of experiment: In vitro anticancer activity against ACHN renal cancer cell line. The assay is classed as functional. The conditions noted are these: Homo sapiens.
Assay [4] concerns SR. As to the kind of experiment: In vitro anticancer activity against SR Leukemia cancer cell line. The assay is classed as functional. The conditions noted are these: Homo sapiens.
Another assay deals with TK-10. In words: In vitro anticancer activity against TK-10 renal cancer cell line. It counts as functional. Conditions: Homo sapiens.
Assay [5] deals with HOP-62. In words: In vitro anticancer activity against HOP-62 non-smallcell lung cancer cell line; Least sensitive cell. It counts as functional. The conditions noted are these: Homo sapiens.
The next assay has as its system IGROV-1. In words: In vitro anticancer activity against IGROV1 ovarian cancer cell line. The conditions noted are these: Homo sapiens. The assay is classed as functional.
Assay [6] concerns SNB-19. In words: In vitro anticancer activity against SNB-19 CNS cancer cell line. The assay is classed as functional. Conditions: Homo sapiens.
The subject of assay [7] is RPMI-8226. In words: In vitro anticancer activity against RPMI-8226 Leukemia cancer cell line. It counts as functional. The conditions noted are these: Homo sapiens.
For a further assay, the system named is PC-3. In words: In vitro anticancer activity against PC-3 prostate cancer cell line. The assay is classed as functional. Conditions: Homo sapiens.
Another assay concerns COLO 205. As to the kind of experiment: In vitro anticancer activity against COLO 205 colon cancer cell line. It counts as functional. The conditions noted are these: Homo sapiens.
For a further assay, the system named is SK-OV-3. In words: In vitro anticancer activity against SK-OV-3 ovarian cancer cell line. It counts as functional. The conditions noted are these: Homo sapiens.
Assay [8] concerns LOX IMVI. In words: In vitro anticancer activity against LOX IMVI melanoma cancer cell line; Most sensitive cell. The assay is classed as functional. Conditions: Homo sapiens.
The subject of assay [9] is RPMI-8226. In words: In vitro anticancer activity against RPMI-8226 Leukemia cancer cell line; Most sensitive cell. The conditions noted are these: Homo sapiens. The assay is classed as functional.
The subject of assay [10] is HOP-62. In words: In vitro anticancer activity against HOP-62 non-smallcell lung cancer cell line. The assay is classed as functional. The conditions noted are these: Homo sapiens.
Assay [11] relates to SNB-19. In words: In vitro anticancer activity against SNB-19 CNS cancer cell line; Leaset sensitive cell. Conditions: Homo sapiens. It counts as functional.
Assay [12] deals with LOX IMVI. As to the kind of experiment: In vitro anticancer activity against LOX IMVI melanoma cancer cell line. It counts as functional. The conditions noted are these: Homo sapiens.
Assay [13] has as its system Panel leukemia (Carcinoma cell lines). As to the kind of experiment: Compound was evaluated for in vitro anticancer activity against leukemia cell lines. The assay is classed as functional, cell-based.
Assay [14] deals with NCI-H322M. As to the kind of experiment: In vitro anticancer activity against NCI-H322M non-small cell lung cancer cell line; Least sensitive cell. The assay is classed as functional. Conditions: Homo sapiens.
In assay [15] the test system is RPMI-8226. In words: In vitro anticancer activity against RPMI-8226 leukemia cancer cell line. It counts as functional. The conditions noted are these: Homo sapiens.
In assay [16] the test system is SR. In words: In vitro anticancer activity against SR leukemia cancer cell line; Most sensitive cell. It counts as functional. The conditions noted are these: Homo sapiens.
For assay [17], the system named is HOP-62. In words: In vitro anticancer activity against HOP-62 non-small cell lung cancer cell line. It counts as functional. Conditions: Homo sapiens.
The subject of assay [18] is SNB-19. In words: In vitro anticancer activity against SNB-19 CNS cancer cell line; Least sensitive cell. The assay is classed as functional. Conditions: Homo sapiens.
In assay [19] the test system is U-251. As to the kind of experiment: In vitro anticancer activity against U-251 CNS cancer cell line; Least sensitive cell. The assay is classed as functional. Conditions: Homo sapiens.
For assay [20], the system named is RPMI-8226. In words: In vitro anticancer activity against RPMI-8226 leukemia cancer cell line; Most sensitive cell. The assay is classed as functional. Conditions: Homo sapiens.
Assay [21] has as its system SR. In words: In vitro anticancer activity against SR leukemia cancer cell line. It counts as functional. The conditions noted are these: Homo sapiens.

For `C=C1CC(COc2ccc3ccccc3c2)(c2ccccc2)OC1=O` (stereo not given), the GI50 in the assay on DU-145 was 12000 nM; in the assay with NCI-H322M [1], 12900 nM; in the assay on SW-620 it was 1910 nM; with U-251 [3], 2820 nM; in the assay with Hs-578T, 3890 nM; in the assay on MDA-MB-435, 2880 nM. Moreover, the GI50 in the assay with Malme-3M was 3390 nM; with ACHN, 4370 nM; with SR [4] it was 3310 nM; with TK-10, 2880 nM; in the assay on HOP-62 [5], 18200 nM; in the assay with IGROV-1, 1550 nM. Further, the GI50 is 10500 nM in the assay with SNB-19 [6]; 2240 nM in the assay with RPMI-8226 [7]; 6460 nM in the assay with PC-3; 1950 nM in the assay with COLO 205; 7590 nM in the assay with SK-OV-3; 1450 nM in the assay on LOX IMVI [8]. In addition, the Ratio in [2] worked out at 1.1.

With `C=C1CC(COc2ccc3cccc(O)c3n2)(c2ccccc2)OC1=O` (stereo not given), the GI50 in the assay on DU-145 was 11200 nM; in the assay on NCI-H322M [1], 8510 nM; in the assay on SW-620, 1860 nM; with RPMI-8226 [9], 14.1 nM; in the assay with U-251 [3], 1820 nM; with Hs-578T, 2290 nM. The GI50 was 2000 nM in the assay with MDA-MB-435; 1700 nM in the assay with Malme-3M; 1510 nM with ACHN; 724 nM with SR [4]; 7080 nM in the assay on TK-10; 2140 nM in the assay with HOP-62 [10]. Also, the GI50 in the assay with IGROV-1 is 1660 nM; in the assay with PC-3, 3090 nM; with COLO 205, 1780 nM; in the assay with SK-OV-3, 7080 nM; in the assay with SNB-19 [11], 14500 nM; with LOX IMVI [12] it was 1290 nM. In addition, the Ratio in assay [2] is recorded as 3.01.

In the case of CISPLATIN, the GI50 in assay [13] stood at 4470 nM.

In the case of `C=C1CC(COc2cccc3ccccc23)(c2ccccc2)OC1=O` (stereo not given), the GI50 is 11200 nM in the assay with DU-145; 1550 nM with SW-620; 15800 nM with NCI-H322M [14]; 3550 nM with U-251 [3]; 6920 nM with Hs-578T; 1740 nM with MDA-MB-435. The GI50 in the assay on Malme-3M is 2880 nM; in the assay with RPMI-8226 [15] it was 2290 nM; with SR [16], 229 nM; with ACHN, 4370 nM; in the assay on TK-10, 10500 nM; in the assay on IGROV-1, 1620 nM. Moreover, the GI50 is 15500 nM in the assay on HOP-62 [17]; 7760 nM in the assay on SNB-19 [6]; 4070 nM in the assay with PC-3; 3160 nM in the assay with COLO 205; 7410 nM with SK-OV-3; 1350 nM in the assay with LOX IMVI [12]. In assay [2], the Ratio is on record as 1.84.

Take `C=C1CC(COc2cccc3ccc(C)nc23)(c2ccccc2)OC1=O` (stereo not given): the GI50 in the assay with DU-145 is 5620 nM; with NCI-H322M [1] it was 12000 nM; in the assay with SW-620, 1480 nM; in the assay on RPMI-8226 [9], 10 nM; with U-251 [3], 1780 nM; in the assay on Hs-578T, 2000 nM. In addition, the GI50 with MDA-MB-435 is 3020 nM; in the assay with Malme-3M, 1700 nM; in the assay on ACHN, 1580 nM; with SR [4], 776 nM; in the assay on TK-10, 2090 nM; in the assay on HOP-62 [10], 3240 nM. In addition, the GI50 in the assay on IGROV-1 was 1780 nM; in the assay on PC-3 it was 2950 nM; in the assay on COLO 205, 2240 nM; in the assay with SNB-19 [18], 17000 nM; in the assay on SK-OV-3, 6760 nM; in the assay on LOX IMVI [12], 1450 nM. The Ratio in assay [2] is on record as 3.23.

`C=C1CC(COc2ccccc2)(c2ccccc2)OC1=O` (stereo not given): the GI50 with DU-145 was 15100 nM; in the assay with NCI-H322M [1], 15500 nM; in the assay on SW-620 it was 1950 nM; with Hs-578T, 11700 nM; with MDA-MB-435, 7410 nM; in the assay on Malme-3M, 10500 nM. Further, the GI50 was 1740 nM in the assay on ACHN; 3240 nM in the assay with SR [4]; 3160 nM with TK-10; 14800 nM in the assay with HOP-62 [10]; 14100 nM with IGROV-1; 11200 nM with SNB-19 [6]. Further, the concentration for 50% growth inhibition (GI50) was 1950 nM with RPMI-8226 [7]; 2140 nM with PC-3; 1740 nM with COLO 205; 17400 nM in the assay on U-251 [19]; 1510 nM in the assay with LOX IMVI [8]. For the same compound, the Ratio in [2] turned out to be 1.06.

In turn, CARBOPLATIN came in with a GI50 in assay [13] of 107000 nM.

Consider `C=C1CC(COc2cccc3cccnc23)(c2ccccc2)OC1=O` (stereo not given), for which the GI50 is 3800 nM with DU-145; 1070 nM with SW-620; 14800 nM with NCI-H322M [14]; 2140 nM in the assay with U-251 [3]; 1480 nM in the assay on Hs-578T; 2140 nM in the assay on MDA-MB-435. Besides, the GI50 was 1510 nM in the assay on Malme-3M; 1620 nM in the assay on ACHN; 19.9 nM with RPMI-8226 [20]; 245 nM in the assay with SR [21]; 1660 nM with TK-10; 5130 nM with HOP-62 [10]. In addition, the 50% growth inhibitory concentration (GI50) was 1550 nM with IGROV-1; 12000 nM with SNB-19 [6]; 1580 nM in the assay with PC-3; 1510 nM with COLO 205; 9330 nM in the assay with SK-OV-3; 1350 nM in the assay with LOX IMVI [12]. In [2], the Ratio was 2.87.

The values are drawn from ChEMBL document CHEMBL1130608, “Synthesis and anticancer evaluation of certain gamma-aryloxymethyl-alpha-methylene-gamma-phenyl-gamma-butyrolactones” (1998).
